Assay results as given in patent US20240368173A1, “TRICYCLIC GPR65 MODULATORS” (PATHIOS THERAPEUTICS LIMITED, priority 2021, published 2024).

The compounds below were run against human recombinant GPR65 (Homo sapiens, UniProt Q8IYL9) (assay: Human GPR65 cAMP HTRF antagonist assay). Conditions: not given.
Chain of human recombinant GPR65 (Q8IYL9 whole entry): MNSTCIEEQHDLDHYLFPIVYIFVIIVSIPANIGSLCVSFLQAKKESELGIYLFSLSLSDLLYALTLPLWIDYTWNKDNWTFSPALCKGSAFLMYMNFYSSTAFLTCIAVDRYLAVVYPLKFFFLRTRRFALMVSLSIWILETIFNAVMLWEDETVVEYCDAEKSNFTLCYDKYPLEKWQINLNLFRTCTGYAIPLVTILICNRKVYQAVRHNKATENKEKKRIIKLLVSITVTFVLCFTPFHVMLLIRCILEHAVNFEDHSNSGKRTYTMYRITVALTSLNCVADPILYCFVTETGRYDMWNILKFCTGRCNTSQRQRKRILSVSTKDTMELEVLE
Type: cell-based
Method in brief: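 Antagonism measured as suppression of the cAMP rise when pH is dropped to 7.2 (control wells pH 7.9) in 1321N1 cells stably carrying human GPR65. Cells in KRH with 1 mM IBMX and 200 μM EDTA saw compound 30 min, then acid stimulation 30 min; HTRF cAMP detection, normalised, 4-parameter logistic IC50.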
`O=C(Nc1cc(Cl)c(-c2ccc3nonc3c2)cc1F)N1[C@H]2CC[C@@H]1c1n[nH]c(=O)cc1C2` [Compound 108, (6S,9R)-N-(4-(Benzo[c][1,2,5]oxadiazol-5-yl)-5-chloro-2-fluorophenyl)-3-oxo-3,5,6,7,8,9-hexahydro-2H-6,9-epiminocyclohepta[c]pyridazine-10-carboxamide] showed an IC50 of under 0.5 µM. Compound `COc1cnccc1-c1cc(F)c(NC(=O)N2[C@H]3CC[C@@H]2c2ccnc(F)c2C3)cc1Cl` [Compound 297, (5R,8S)-N-(5-Chloro-2-fluoro-4-(3-methoxypyridin-4-yl)phenyl)-1-fluoro-6,7,8,9-tetrahydro-5H-5,8-epiminocyclohepta[c]pyridine-10-carboxamide] has an IC50 of under 0.5 µM. `O=C(Nc1cc(Cl)c(-c2cnc(F)c(F)c2)cc1F)N1[C@H]2CC[C@@H]1c1ccnc(F)c1C2` [Compound 262, (5R,8S)-N-(5-chloro-4-(5,6-difluoropyridin-3-yl)-2-fluorophenyl)-1-fluoro-6,7,8,9-tetrahydro-5H-5,8-epiminocyclohepta[c]pyridine-10-carboxamide] was tested, and the IC50 was under 0.5 µM. In the case of `O=C(Nc1cc(Cl)c(-c2ccc(C(F)(F)F)nc2)cc1F)N1[C@H]2CC[C@@H]1c1n[nH]c(=O)cc1C2` [Compound 313, (6S,9R)-N-(5-Chloro-2-fluoro-4-(6-(trifluoromethyl)pyridin-3-yl)phenyl)-3-oxo-3,5,6,7,8,9-hexahydro-2H-6,9-epiminocyclohepta[c]pyridazine-10-carboxamide], the IC50 is reported as under 0.5 µM. For `Cc1ccc(-c2cc(F)c(NC(=O)N3[C@H]4CC[C@@H]3c3n[nH]c(=O)cc3C4)cc2Cl)cn1` [Compound 123, (6S,9R)-N-(5-Chloro-2-fluoro-4-(6-methylpyridin-3-yl)phenyl)-3-oxo-3,5,6,7,8,9-hexahydro-2H-6,9-epiminocyclohepta[c]pyridazine-10-carboxamide], the IC50 was under 0.5 µM. `O=C(Nc1cc(Cl)c(Cl)cc1F)N1C2CCC1c1n[nH]c(=O)cc1C2` (racemic) [Compound 2, (±)-N-(4,5-Dichloro-2-fluorophenyl)-3-oxo-3,5,6,7,8,9-hexahydro-2H-6,9-epiminocyclohepta[c]pyridazine-10-carboxamide] was tested, and the IC50 was under 0.5 µM. Compound `COc1cc(-c2cc(F)c(NC(=O)N3[C@H]4CC[C@@H]3c3c[nH]c(=O)cc3C4)cc2Cl)ccn1` [Compound 265, (6S,9R)-N-(5-Chloro-2-fluoro-4-(2-methoxypyridin-4-yl)phenyl)-3-oxo-3,5,6,7,8,9-hexahydro-2H-6,9-epiminocyclohepta[c]pyridine-10-carboxamide] has an IC50 of under 0.5 µM. `COc1cc(-c2cc(F)c(NC(=O)N3[C@H]4CC[C@@H]3c3n[nH]c(=O)cc3C4)cc2Cl)ccn1` [Compound 199, (6S,9R)-N-(5-Chloro-2-fluoro-4-(2-methoxypyridin-4-yl)phenyl)-3-oxo-3,5,6,7,8,9-hexahydro-2H-6,9-epiminocyclohepta[c]pyridazine-10-carboxamide] was tested, and the IC50 was under 0.5 µM. `O=C(Nc1cc(Cl)c(-c2ccnc(F)c2)cc1F)N1[C@H]2CC[C@@H]1c1n[nH]c(=O)cc1C2` [Compound 266, (6S,9R)-N-(5-Chloro-2-fluoro-4-(2-fluoropyridin-4-yl)phenyl)-3-oxo-3,5,6,7,8,9-hexahydro-2H-6,9-epiminocyclohepta[c]pyridazine-10-carboxamide] showed an IC50 of under 0.5 µM. Work on `O=C(Nc1cc(Cl)c(-c2ccc(OCC3CC3(F)F)nc2)cc1F)N1[C@H]2CC[C@@H]1c1n[nH]c(=O)cc1C2` (stereo partly drawn) [Compound 338, (6S,9R)-N-(5-Chloro-4-(6-((2,2-difluorocyclopropyl)methoxy)pyridin-3-yl)-2-fluorophenyl)-3-oxo-3,5,6,7,8,9-hexahydro-2H-6,9-epiminocyclohepta[c]pyridazine-10-carboxamide] yielded an IC50 of under 0.5 µM. Work on `O=C(Nc1cc(Cl)c(C(F)(F)F)cc1F)N1[C@@H]2CC[C@H]1[C@H](F)c1c2ccnc1F` [Compound 193, (5R,8S,9R)-N-(5-Chloro-2-fluoro-4-(trifluoromethyl)phenyl)-1,9-difluoro-6,7,8,9-tetrahydro-5H-5,8-epiminocyclohepta[c]pyridine-10-carboxamide] yielded an IC50 of under 0.5 µM. `COc1ccc(-c2cc(F)c(NC(=O)N3[C@H]4CC[C@@H]3c3ccnc(F)c3C4)cc2Cl)cn1` [Compound 185, (5R,8S)-N-(5-Chloro-2-fluoro-4-(6-methoxypyridin-3-yl)phenyl)-1-fluoro-6,7,8,9-tetrahydro-5H-5,8-epiminocyclohepta[c]pyridine-10-carboxamide] showed an IC50 of under 0.5 µM. `O=C(Nc1cc(Cl)c(I)cc1F)N1[C@H]2CC[C@@H]1c1c[nH]c(=O)cc1C2` [Compound 79, (6S,9R)-N-(5-Chloro-2-fluoro-4-iodophenyl)-3-oxo-3,5,6,7,8,9-hexahydro-2H-6,9-epiminocyclohepta[c]pyridine-10-carboxamide] showed an IC50 of under 0.5 µM. Compound `COc1cnc(F)c2c1[C@H]1CC[C@@H](C2)N1C(=O)Nc1cc(Cl)c(C(F)(F)F)cc1F` [Compound 97, (5R,8S)-N-(5-Chloro-2-fluoro-4-(trifluoromethyl)phenyl)-1-fluoro-4-methoxy-6,7,8,9-tetrahydro-5H-5,8-epiminocyclohepta[c]pyridine-10-carboxamide] has an IC50 of under 0.5 µM.

Same assay, conditions: 1321N1-hrGPR65 cells, cAMP HTRF, assay pH 7.2; read-out: hGPR65 IC50 (Activity of selected compounds according to the invention)
Compound `O=C(Nc1cc(Cl)c(Cl)cc1F)N1C2CCC1c1ncc(=O)[nH]c1C2` (racemic) [Compound 158, (±)—N-(4,5-Dichloro-2-fluorophenyl)-2-oxo-2,5,6,7,8,9-hexahydro-1H-5,8-epiminocyclohepta[b]pyrazine-10-carboxamide] has an IC50 of over 5 µM. Work on `O=C(Nc1cc(Cl)c(C2(O)CC2)cc1F)N1[C@H]2CC[C@@H]1c1ccnc(F)c1C2` [Compound 68, (5R,8S)-N-(5-Chloro-2-fluoro-4-(1-hydroxycyclopropyl)phenyl)-1-fluoro-6,7,8,9-tetrahydro-5H-5,8-epiminocyclohepta[c]pyridine-10-carboxamide] yielded an IC50 of 0.5 to 5 µM. Work on `CS(=O)(=O)NCc1cccc(-c2cc(F)c(NC(=O)N3[C@H]4CC[C@@H]3c3n[nH]c(=O)cc3C4)cc2Cl)c1` [Compound 203, (6S,9R)-N-(2-Chloro-5-fluoro-3′-(methylsulfonamidomethyl)-[1,1′-biphenyl]-4-yl)-3-oxo-3,5,6,7,8,9-hexahydro-2H-6,9-epiminocyclohepta[c]pyridazine-10-carboxamide] yielded an IC50 of 0.5 to 5 µM. `COc1ccc2c(n1)C[C@@H]1CC[C@H]2N1C(=O)Nc1cc(Cl)c(Cl)cc1F` [Compound 54, (5R,8S)-N-(4,5-Dichloro-2-fluorophenyl)-2-methoxy-6,7,8,9-tetrahydro-5H-5,8-epiminocyclohepta[b]pyridine-10-carboxamide] showed an IC50 of over 5 µM. Compound `O=C(Nc1ccc(OC2CCC2)c(Cl)c1)N1C2CCC1c1n[nH]c(=O)cc1C2` (racemic) [Compound 14, (±)-N-(3-Chloro-4-cyclobutoxyphenyl)-3-oxo-3,5,6,7,8,9-hexahydro-2H-6,9-epiminocyclohepta[c]pyridazine-10-carboxamide] has an IC50 of 0.5 to 5 µM. In the case of `O=C1COc2ccc(-c3cc(F)c(NC(=O)N4[C@H]5CC[C@@H]4c4n[nH]c(=O)cc4C5)cc3Cl)cc2N1` [Compound 146, (6S,9R)-N-(5-Chloro-2-fluoro-4-(3-oxo-3,4-dihydro-2H-benzo[b][1,4]oxazin-6-yl)phenyl)-3-oxo-3,5,6,7,8,9-hexahydro-2H-6,9-epiminocyclohepta[c]pyridazine-10-carboxamide], the IC50 is reported as 0.5 to 5 µM.
